Format in all cases: binding
In experiment [1] the target is T1, GDP-loaded K-Ras (1-169) C51S, C80L, C118S (Homo sapiens, UniProt P01116, C118S/C51S/C80L).
T1 construct: GDP-loaded K-Ras (1-169) C51S, C80L, C118S
In words: K-Ras WT (GDP) cross-linking assay (conjugate formation, TOF mass spectrometry). Also noted: key: 0: No observed x-linking; +: 0 < x ≤ 20; ++: 20 < x ≤ 40; +++: 40 < x ≤ 100. As to conditions: percent covalently modified K-Ras by MS, room temperature, typical compound conc. 2, 10, 25 μM, endpoints 1 and 24 h. Summed up: (§1)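 5 μM protein (final, from 50 μM) in HEPES/NaCl/MgCl2 buffer pH 7.4 with compound typically at 2, 10 and 25 μM, room temperature, 1 and 24 h endpoints; formic acid quench. Intact-protein LC–TOF MS; percent modification is covalent adduct peak height over total K-Ras peak height.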

In experiment [2] the target is T2, GDP-loaded K-Ras (1-169) G12D, C51S, C80L, C118S (Homo sapiens, UniProt P01116, C118S/C51S/C80L/G12D).
T2 construct: GDP-loaded K-Ras (1-169) G12D, C51S, C80L, C118S
In words: K-Ras G12D(GDP) cross-linking assay (conjugate formation, TOF mass spectrometry). The following applies: percent covalently modified K-Ras by MS, room temperature, typical compound conc. 2, 10, 25 μM, endpoints 1 and 24 h. Also noted: key: 0: No observed x-linking; +: 0 < x ≤ 20; ++: 20 < x ≤ 40; +++: 40 < x ≤ 100. Summed up:
as §1

The target in the next experiment is K-Ras G12S (Homo sapiens, UniProt P01116, G12S). In words: K-Ras G12S cross-linking assay (comparable procedure, conjugate formation, TOF mass spectrometry). Also noted: key: 0: No observed x-linking. Summed up: as §1
Setting [3] is: Table 5, percent covalently modified K-Ras by MS.
Where [4] appears, read: Table 4, percent covalently modified K-Ras by MS.

Results on 18 molecules are retold here after patent US20230100838A1 (Revolution Medicines, Inc., priority 2019, published 2023).

Each structure is given as a SMILES string.

For the molecule `Cc1cccc2cccc(N3CCc4c(nc(OC[C@@H]5CCCN5C)nc4N4CCC(N=C=NCCCN(C)c5ccccn5)CC4)C3)c12` [Example 91, N-methyl-N-(3-((((1-(7-(8-methylnaphthalen-1-yl)-2-(((S)-1-methylpyrrolidin-2-yl)methoxy)-5,6,7,8-tetrahydropyrido[3,4-d]pyrimidin-4-yl)piperidin-4-yl)imino)methylene)amino)propyl)pyridin-2-amine], the “WT x-linking (%)” value in experiment [1] (Table 5) is reported as “+ (0 < x ≤ 20)”. For the same molecule, the “G12D x-linking (%)” value in experiment [2] (Table 5) is listed as “++ (20 < x ≤ 40)”. Also, at K-Ras G12S (setting [3]), the “G12S x-linking (%)” value is recorded as “+ (0 < x ≤ 10)”.

`Cc1cccc2cccc(N3CCc4c(nc(OC[C@@H]5CCCN5C)nc4N4CCC(N=C=NCCCN5CCOCC5)CC4)C3)c12` [Example 85, N-(1-(7-(8-methylnaphthalen-1-yl)-2-(((S)-1-methylpyrrolidin-2-yl)methoxy)-5,6,7,8-tetrahydropyrido[3,4-d]pyrimidin-4-yl)piperidin-4-yl)-N-(3-morpholinopropyl)methanediimine]: the “WT x-linking (%)” value in experiment [1] (Table 5) is “++ (20 < x ≤ 100)”. Moreover, the “G12D x-linking (%)” value in experiment [2] (Table 5) is recorded as “+++ (40 < x ≤ 100)”. The “G12S x-linking (%)” value on K-Ras G12S (setting [3]) was “++ (10 < x ≤ 100)”.

In the case of `Cc1ccnc(C(C)C)c1-n1c(=O)nc(N(C)CCCN=C=NCc2ccccc2)c2cc(F)c(-c3ccccc3F)nc21` [Example 57], the “WT x-linking (%)” value in experiment [1] (Table 4) was “+ (0 < x ≤ 20)”. Besides, the “G12D x-linking (%)” value in experiment [2] (Table 4) is “++ (20 < x ≤ 40)”. For the same molecule, the “G12S x-linking (%)” value on K-Ras G12S (setting [4]) was “++ (10 < x ≤ 100)”.

For `Cc1cccc2cccc(N3CCc4c(nc(OC[C@@H]5CCCN5C)nc4N(C)CCN=C=NCc4ccccc4)C3)c12` [Example 27, N-(2-(((benzylimino)methylene)amino)ethyl)-N-methyl-7-(8-methylnaphthalen-1-yl)-2-(((S)-1-methylpyrrolidin-2-yl)methoxy)-5,6,7,8-tetrahydropyrido[3,4-d]pyrimidin-4-amine], the “WT x-linking (%)” value in experiment [1] (Table 4) is “+ (0 < x ≤ 20)”. Moreover, the “G12D x-linking (%)” value in experiment [2] (Table 4) is given as “++ (20 < x ≤ 40)”. Moreover, the “G12S x-linking (%)” value on K-Ras G12S (setting [4]) is listed as “++ (10 < x ≤ 100)”.

Consider `COCCN=C=NC1CCN(c2nc(OC[C@@H]3CCCN3C)nc3c2CCN(c2cccc4cccc(C)c24)C3)CC1` [Example 20, N-(2-methoxyethyl)-N-(1-(7-(8-methylnaphthalen-1-yl)-2-(((S)-1-methylpyrrolidin-2-yl)methoxy)-5,6,7,8-tetrahydropyrido[3,4-d]pyrimidin-4-yl)piperidin-4-yl)methanediimine], for which the “WT x-linking (%)” value in experiment [1] (Table 4) is “++ (20 < x ≤ 100)”. For the same molecule, the “G12D x-linking (%)” value in experiment [2] (Table 4) is “+++ (40 < x ≤ 100)”. The “G12S x-linking (%)” value at K-Ras G12S (setting [4]) is “++ (10 < x ≤ 100)”.

Consider `Cc1cccc2cccc(N3CCc4c(nc(OC[C@@H]5CCCN5C)nc4N4CCC(C(O)(O)C(F)(F)F)CC4)C3)c12` [Example 51, (S)-2,2,2-trifluoro-1-(1-(7-(8-methylnaphthalen-1-yl)-2-((1-methylpyrrolidin-2-yl)methoxy)-5,6,7,8-tetrahydropyrido[3,4-d]pyrimidin-4-yl)piperidin-4-yl)ethane-1,1-diol], for which, in experiment [1] (Table 4), the “WT x-linking (%)” value is reported as “+ (0 < x ≤ 20)”. The “G12D x-linking (%)” value in experiment [2] (Table 4) is on record as “+ (0 < x ≤ 20)”. Besides, on K-Ras G12S (setting [4]), the “G12S x-linking (%)” value is recorded as “+ (0 < x ≤ 10)”.

With `Cc1cccc2cccc(N3CCc4c(nc(OC[C@@H]5CCCN5C)nc4NCCN(C)C(=O)NCCCl)C3)c12` [Example 37, (S)-3-(2-chloroethyl)-1-methyl-1-(2-((7-(8-methylnaphthalen-1-yl)-2-((1-methylpyrrolidin-2-yl)methoxy)-5,6,7,8-tetrahydropyrido[3,4-d]pyrimidin-4-yl)amino)ethyl)urea], in experiment [1] (Table 4), the “WT x-linking (%)” value stood at 0. The “G12D x-linking (%)” value in experiment [2] (Table 4) is reported as 0. In addition, the “G12S x-linking (%)” value on K-Ras G12S (setting [4]) was 0.

With `CCCN=C=NCCN(C)c1nc(OC[C@@H]2CCCN2C)nc2c1CCN(c1cccc3cccc(C)c13)C2` [Example 26, N-methyl-7-(8-methylnaphthalen-1-yl)-2-(((S)-1-methylpyrrolidin-2-yl)methoxy)-N-(2-(((propylimino)methylene)amino)ethyl)-5,6,7,8-tetrahydropyrido[3,4-d]pyrimidin-4-amine], in experiment [1] (Table 4), the “WT x-linking (%)” value is listed as “++ (20 < x ≤ 100)”. Further, in experiment [2] (Table 4), the “G12D x-linking (%)” value is listed as “+++ (40 < x ≤ 100)”. Besides, the “G12S x-linking (%)” value on K-Ras G12S (setting [4]) was “++ (10 < x ≤ 100)”.

Turning to `COCCN=C=NCC1CCN(c2nc(=O)n(-c3c(C)ccnc3C(C)C)c3nc(-c4ccccc4F)c(F)cc23)CC1` [Example 70, 6-fluoro-7-(2-fluorophenyl)-1-(2-isopropyl-4-methylpyridin-3-yl)-4-(4-(((((2-methoxyethyl)imino)methylene)amino)methyl)piperidin-1-yl)pyrido[2,3-d]pyrimidin-2(1H)-one], the “WT x-linking (%)” value in experiment [1] (Table 5) is “++ (20 < x ≤ 100)”. In addition, the “G12D x-linking (%)” value in experiment [2] (Table 5) is recorded as “++ (20 < x ≤ 40)”. Also, the “G12S x-linking (%)” value at K-Ras G12S (setting [3]) is “++ (10 < x ≤ 100)”.

In the case of `Cc1cccc2cccc(N3CCc4c(nc(OC[C@@H]5CCCN5C)nc4N(C)CCCN=C=NCc4ccccc4)C3)c12` [Example 31, N-(3-(((benzylimino)methylene)amino)propyl)-N-methyl-7-(8-methylnaphthalen-1-yl)-2-(((S)-1-methylpyrrolidin-2-yl)methoxy)-5,6,7,8-tetrahydropyrido[3,4-d]pyrimidin-4-amine], the “WT x-linking (%)” value in experiment [1] (Table 4) is on record as “++ (20 < x ≤ 100)”. For the same molecule, the “G12D x-linking (%)” value in experiment [2] (Table 4) is “+++ (40 < x ≤ 100)”. The “G12S x-linking (%)” value on K-Ras G12S (setting [4]) is on record as “++ (10 < x ≤ 100)”.

Regarding `CC(C)N=C=NC1CCN(c2ncnc3c(F)c(-c4ccccc4F)c(Cl)cc23)CC1` [Example 3], in experiment [1] (Table 4), the “WT x-linking (%)” value was “+ (0 < x ≤ 20)”. Moreover, the “G12D x-linking (%)” value in experiment [2] (Table 4) is on record as “+ (0 < x ≤ 20)”. Also, the “G12S x-linking (%)” value at K-Ras G12S (setting [4]) is “+ (0 < x ≤ 10)”.

`COCCN=C=N[C@H]1CCN(c2nc(OC[C@@H]3CCCN3C)nc3c2CCN(c2cccc4cccc(C)c24)C3)C1` [Example 74, N-(2-methoxyethyl)-N—((S)-1-(7-(8-methylnaphthalen-1-yl)-2-(((S)-1-methylpyrrolidin-2-yl)methoxy)-5,6,7,8-tetrahydropyrido[3,4-d]pyrimidin-4-yl)pyrrolidin-3-yl)methanediimine]: the “WT x-linking (%)” value in experiment [1] (Table 5) is reported as “++ (20 < x ≤ 100)”. The “G12D x-linking (%)” value in experiment [2] (Table 5) is “+++ (40 < x ≤ 100)”. The “G12S x-linking (%)” value on K-Ras G12S (setting [3]) is listed as “++ (10 < x ≤ 100)”.

As for `Cc1ccnc(C(C)C)c1-n1c(=O)nc(N2CCC(CN=C=NCc3ccccc3)CC2)c2cc(F)c(-c3ccccc3F)nc21` [Example 69, 4-(4-((((benzylimino)methylene)amino)methyl)piperidin-1-yl)-6-fluoro-7-(2-fluorophenyl)-1-(2-isopropyl-4-methylpyridin-3-yl)pyrido[2,3-d]pyrimidin-2(1H)-one], the “WT x-linking (%)” value in experiment [1] (Table 5) is on record as “+ (0 < x ≤ 20)”. The “G12D x-linking (%)” value in experiment [2] (Table 5) is “+ (0 < x ≤ 20)”. For the same molecule, the “G12S x-linking (%)” value on K-Ras G12S (setting [3]) is “+ (0 < x ≤ 10)”.

Regarding `CN=C=NCCN(C)c1ncnc2c(F)c(-c3ccccc3F)c(Cl)cc12` [Example 9, 6-chloro-8-fluoro-7-(2-fluorophenyl)-N-methyl-N-(2-(((methylimino)methylene)amino)ethyl)quinazolin-4-amine], the “WT x-linking (%)” value in experiment [1] (Table 4) is “+ (0 < x ≤ 20)”. For the same molecule, the “G12D x-linking (%)” value in experiment [2] (Table 4) was “+ (0 < x ≤ 20)”. Also, on K-Ras G12S (setting [4]), the “G12S x-linking (%)” value is given as “+ (0 < x ≤ 10)”.

With `CCCN=C=NCCCN(C)c1nc(=O)n(-c2c(C)ccnc2C(C)C)c2nc(-c3ccccc3F)c(F)cc12` [Example 55, 6-fluoro-7-(2-fluorophenyl)-1-(2-isopropyl-4-methylpyridin-3-yl)-4-(methyl(3-(((propylimino)methylene)amino)propyl)amino)pyrido[2,3-d]pyrimidin-2(1H)-one], the “WT x-linking (%)” value in experiment [1] (Table 4) is recorded as “++ (20 < x ≤ 100)”. In experiment [2] (Table 4), the “G12D x-linking (%)” value is reported as “++ (20 < x ≤ 40)”. Also, the “G12S x-linking (%)” value at K-Ras G12S (setting [4]) is “++ (10 < x ≤ 100)”.

On to `COCCN=C=NCC1CCN(c2nc(OC[C@@H]3CCCN3C)nc3c2CCN(c2cccc4cccc(C)c24)C3)CC1` [Example 77, N-(2-methoxyethyl)-N-((1-(7-(8-methylnaphthalen-1-yl)-2-(((S)-1-methylpyrrolidin-2-yl)methoxy)-5,6,7,8-tetrahydropyrido[3,4-d]pyrimidin-4-yl)piperidin-4-yl)methyl)methanediimine], for which the “WT x-linking (%)” value in experiment [1] (Table 5) was “++ (20 < x ≤ 100)”. The “G12D x-linking (%)” value in experiment [2] (Table 5) was “+++ (40 < x ≤ 100)”. The “G12S x-linking (%)” value on K-Ras G12S (setting [3]) is reported as “++ (10 < x ≤ 100)”.

With `COc1ccc(CN=C=NCCN(C)c2nc(OC[C@@H]3CCCN3C)nc3c2CCN(c2cccc4cccc(C)c24)C3)cc1` [Example 29, N-(2-((((4-methoxybenzyl)imino)methylene)amino)ethyl)-N-methyl-7-(8-methylnaphthalen-1-yl)-2-(((S)-1-methylpyrrolidin-2-yl)methoxy)-5,6,7,8-tetrahydropyrido[3,4-d]pyrimidin-4-amine], the “WT x-linking (%)” value in experiment [1] (Table 4) is reported as “++ (20 < x ≤ 100)”. Also, in experiment [2] (Table 4), the “G12D x-linking (%)” value is recorded as “+++ (40 < x ≤ 100)”. For the same molecule, the “G12S x-linking (%)” value at K-Ras G12S (setting [4]) was “++ (10 < x ≤ 100)”.

Regarding `CN(CCN=C=NCc1ccccc1)c1ncnc2c(F)c(-c3ccccc3F)c(Cl)cc12` [Example 8, N-(2-(((benzylimino)methylene)amino)ethyl)-6-chloro-8-fluoro-7-(2-fluorophenyl)-N-methylquinazolin-4-amine], the “WT x-linking (%)” value in experiment [1] (Table 4) is recorded as “+ (0 < x ≤ 20)”. For the same molecule, the “G12D x-linking (%)” value in experiment [2] (Table 4) is “+ (0 < x ≤ 20)”. For the same molecule, the “G12S x-linking (%)” value on K-Ras G12S (setting [4]) is reported as “+ (0 < x ≤ 10)”.
